Consider two compounds from patent US9765017B2, “Allosteric hemoglobin modifiers with nitric oxide releasing moiety” (VIRGINIA COMMONWEALTH UNIVERSITY, priority 2013, dated 2017).

A short description of series [1]: Stability of DMSO stock solution checked by UPLC-MS. It is filed as physicochemical. The note with it: 100 μM in DMSO, 3 months at −20° C., at least 6 freeze-thaw cycles. The method, then: The stability of nitrate esters was checked by performing UPLC-MS on a previously prepared stock solution of DD-1. A 100 μM stock solution was prepared in DMSO and stored for 3 months at −20° C. during which time it was exposed to at least 6 freeze-thaw cycles.

Series [2] in a line: Griess assay of nitric oxide release (quantitated as NO2- release). It is filed as physicochemical. The note with it: 2 mM solution in 0.1 M phosphate buffer pH 7.4 mixed with 36 mM L-cysteine, 37° C., anaerobic. The method, then: A Griess assay was used to measure the NO releasing ability of DD-1 following literature procedures.^29-31 Solution of the test compound (1 mL of a 2 mM solution in 0.1 M phosphate buffer (pH 7.4)) was mixed thoroughly with a freshly prepared solution of L-cysteine (1 mL of a 36 mM solution in 0.1 M phosphate buffer, pH 7.4), and incubated at 37° C. for 1 and 16 h under anaerobic conditions. After exposure to air for 10 min at 25° C., an aliquot of the Griess reagent (1 mL) [freshly prepared by mixing equal volumes of 1.0% sulfanilamide (prepared and stored in aqueous 5% phosphoric acid) and 0.1% N-naphthylethylenediamine dihydrochloride in water] was added to equal volume (1 mL) of each incubation solution after mixing. After 10 min, absorbance was measured at 540 nm using a Hewlett Packard (Agilent) 8453 UV-visible Spectroscopy. NaNO2 solutions of 1-100 μM concentrations were used to prepare a standard nitrite curve of absorbance (nm) versus concentration (μM), and the NO released by DD-1 (quantitated as NO2^−release in μM) was calculated from the standard nitrite curve by extrapolation of the absorbance.
(Griess reagent forms a coloured azo dye with nitrite.)

The target in a further series is T1, Hb (Homo sapiens, UniProt P68871+P69905).
T1 construct: Normal whole blood used in some of the functional assays was collected from adult donors; from tissue; host or cells: normal human whole blood (red cells) from adult donors
T1 sequence (P69905 2-142 limits assumed): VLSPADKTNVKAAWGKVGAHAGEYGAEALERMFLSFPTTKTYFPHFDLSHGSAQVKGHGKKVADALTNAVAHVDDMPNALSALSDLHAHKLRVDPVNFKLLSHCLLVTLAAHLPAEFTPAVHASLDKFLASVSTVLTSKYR
T1 sequence (P68871 2-147 limits assumed): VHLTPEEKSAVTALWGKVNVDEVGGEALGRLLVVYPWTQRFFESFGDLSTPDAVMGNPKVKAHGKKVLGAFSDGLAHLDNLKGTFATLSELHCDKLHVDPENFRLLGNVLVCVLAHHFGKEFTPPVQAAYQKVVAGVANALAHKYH
Nature of the series: Effect on Hb affinity for oxygen (oxygen equilibrium curve study) using normal whole blood. It is filed as cell-based. The note with it: 2 mM compound; for ΔP50: versus DMSO control, whole blood; for N (Hill coefficient) / P50: whole blood (Hct ~29%), 37° C. An excerpt: RSR-13 is an allosteric effector of Hb that acts by decreasing Hb affinity for O2, and as a result allows release of more O2 to tissues.^26 In this study, a nitrate ester moiety was incorporated onto RSR-13. It was proposed that, in vivo, the NO will cleave off, resulting in the parent compound and free NO, the former acting as right-shifter of the oxygen equilibrium curve while the latter is released into the vasculature. The following describe the synthesis of three nitrate esters of RSR-13, including DD-1, DD-2 and DD-3 (FIGS. 1-3). Other NO containing RSR-13 derivatives, such as those referenced above may be synthesized according to the same or similar processes. Normal whole blood used in some of the functional assays was collected from adult donors at the Virginia Commonwealth University after informed consent. Hb used for structural studies was purified from discarded normal blood samples. The use of these human samples is in accordance with regulations of the IRB for Protection of Human Subjects.
The effect of DD-1 on Hb affinity for oxygen was studied using whole blood with RSR-13 as a positive control. Solution of DD-1 and RSR-13 was added to 2 mL of whole blood (Hemocrit of ˜29%) to make a final drug concentration of 2 mM. Time-dependent studies were carried out at various time points (ranging from 1 h to 12 h) at 37° C. Briefly, blood-drug mixture samples at various time points were incubated in IL 237 tonometer (Instrumentation Laboratories, Inc., Lexington, Mass.) for about 5-7 min at 37° C. against gas mixture containing O2 concentrations of 0.804%, 2.935% and 8.785% and allowed to equilibrate at O2 tensions of 6, 20, 60 mmHg, respectively. After equilibration, the sample was removed via syringe and aspirated into a ABL 700 series table top automated blood gas analyzer (Radiometer America, Inc., Westlake, Ohio) to determine total hemoglobin (tHb), hematocrit (Hct), pH, pCO2, partial pressure of oxygen (pO2), and the Hb oxygen saturation values (sO2). The measured values of pO2 and sO2 at each oxygen saturation level were then subjected to a non-linear regression analysis using the program Scientist (Micromath, Salt Lake City, Utah) with the following equation:
[formula] This equation was used to calculate P50 and Hill coefficient (N) values. Corresponding control experiments without the test compound (P50control) but containing DMSO were also performed.

The structures appear in SMILES notation.

Take `Cc1cc(C)cc(NC(=O)Cc2ccc(OC(C)(C)C(=O)OCCO[N+](=O)[O-])cc2)c1` [DD-1, 2-(Nitrooxy)ethyl 2-(4-(2-((3,5-dimethylphenyl)amino)-2-oxoethyl)phenoxy)-2-methylpropanoate]: in series [1], the “Stability of stock solution” value is given as “stable”. In addition, the “NO2- release after 1 hour” value in series [2] (1 h incubation) is 9.61 µM. The “NO2- release after 16 hours” value in series [2] (16 h incubation) stood at 5.35 µM. Further, the ΔP50 at Hb (incubation time 1 h) is reported as 3.2 mmHg; on Hb (incubation time 2 h), 6.3 mmHg; on Hb (incubation time 4 h), 16.3 mmHg; at Hb (incubation time 8 h), 25.4 mmHg; on Hb (incubation time 12 h) it was 27.8 mmHg. Moreover, the “N (Hill coefficient)” value is given as 2.3 on Hb (incubation time 1 h); 2.1 at Hb (incubation time 2 h); 1.9 at Hb (incubation time 4 h); 1.7 at Hb (incubation time 8 h); 1.7 at Hb (incubation time 12 h). The P50 is recorded as 35.7 mmHg at Hb (incubation time 1 h); 39.2 mmHg at Hb (incubation time 2 h); 49.9 mmHg at Hb (incubation time 4 h); 60.3 mmHg on Hb (incubation time 8 h); 64.8 mmHg on Hb (incubation time 12 h).
With `Cc1cc(C)cc(NC(=O)Cc2ccc(OC(C)(C)C(=O)O)cc2)c1` [RSR-13, 2-[4-[2-[(3,5-dimethylphenyl)amino]-2-oxoethyl]phenoxy]-2-methylpropanoic acid, reference compound], the ΔP50 on Hb (incubation time 1 h) is listed as 15.3 mmHg; at Hb (incubation time 2 h) it was 15.0 mmHg; on Hb (incubation time 4 h) it was 16.1 mmHg; on Hb (incubation time 8 h), 16.9 mmHg; on Hb (incubation time 12 h), 15.6 mmHg. For the same compound, the “N (Hill coefficient)” value was determined as 1.8 at Hb (incubation time 1 h); 1.9 at Hb (incubation time 2 h); 1.8 at Hb (incubation time 4 h); 1.8 at Hb (incubation time 8 h); 1.9 on Hb (incubation time 12 h). Also, the P50 on Hb (incubation time 1 h) amounted to 47.8 mmHg; on Hb (incubation time 2 h) it was 47.9 mmHg; on Hb (incubation time 4 h), 49.7 mmHg; at Hb (incubation time 8 h), 51.8 mmHg; on Hb (incubation time 12 h) it was 52.6 mmHg.
